Experimental data reported in US10280163B2 (BeiGene, Ltd., priority 2015, dated 2019).
Read-outs that look alike come from different tables or passages of the source.

Experiments:
[1] = biological target: T1, Recombinant IDO1 (Homo sapiens, UniProt P14902); assay: IDO1 enzymatic assay; format: biochemical
T1 construct: His tag (N); made in house; host or cells: E. coli
Outline: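 N-terminally His-tagged enzyme from E. coli (50 nM) was incubated with compound, 1.3 mM D-tryptophan, 5 mM ascorbate, 6.25 μM methylene blue and 0.4 mg/mL catalase in 50 mM potassium phosphate pH 7.5, 0.1% BSA for 1.5 h at 24° C. N′-formylkynurenine formation was followed at 321 nm for 1 h; IC50 from rate slopes.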

[2] = biological target: T2, cellular IDO1 in HeLa cells (Homo sapiens, UniProt P14902); assay: HeLa cell-based IDO1 Kyn (kynurenine) production assay; conditions: IFN-γ 100 ng/mL, 48 hours
T2 construct: endogenous in cells; host or cells: HeLa cells (American Type Tissue Culture Collection), induced with human recombinant IFN-γ
Outline: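 IFN-γ-induced HeLa cells (100 ng/mL) in phenol red-free DMEM with 0.4 mM L-Trp, compounds added together with IFN-γ, 48 h at 37 °C. Supernatant Kyn read at 480 nm after TCA precipitation and 4-(dimethylamino)benzaldehyde reaction. IC50 from four-parameter logistic fit.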

[3] = biological target: T3, Recombinant TDO (Homo sapiens, UniProt P48775); assay: TDO enzymatic assay; format: biochemical
T3 construct: His tag (C); made in house; host or cells: E. coli
Description: Recombinant TDO was overexpressed and purified from E. coli cells with a C-terminal His tag. TDO enzymatic assay was performed using the same methodology as IDO1 enzymatic assay except that 100 nM TDO and 0.5 mM L-tryptophan (Km concentration) were used in the TDO assay.

[4] = Table 1, 5-substituted imidazo[1,5-a]pyridines, 50 nM IDO1, 1.3 mM D-tryptophan, read-out: Enzyme IC50 (nM) IDO1
[5] = Table 1, 5-substituted imidazo[1,5-a]pyridines
[6] = Table 1, 5-substituted imidazo[1,5-a]pyridines, 100 nM TDO, 0.5 mM L-tryptophan, read-out: Enzyme IC50 (nM) TDO
[7] = Table 2, 8-substituted imidazo[1,5-a]pyridines, 50 nM IDO1, 1.3 mM D-tryptophan, read-out: Enzyme IC50 (nM) IDO1
[8] = Table 2, 8-substituted imidazo[1,5-a]pyridines
[9] = Table 2, 8-substituted imidazo[1,5-a]pyridines, 100 nM TDO, 0.5 mM L-tryptophan, read-out: Enzyme IC50 (nM) TDO

T2 sequence (P14902 whole entry): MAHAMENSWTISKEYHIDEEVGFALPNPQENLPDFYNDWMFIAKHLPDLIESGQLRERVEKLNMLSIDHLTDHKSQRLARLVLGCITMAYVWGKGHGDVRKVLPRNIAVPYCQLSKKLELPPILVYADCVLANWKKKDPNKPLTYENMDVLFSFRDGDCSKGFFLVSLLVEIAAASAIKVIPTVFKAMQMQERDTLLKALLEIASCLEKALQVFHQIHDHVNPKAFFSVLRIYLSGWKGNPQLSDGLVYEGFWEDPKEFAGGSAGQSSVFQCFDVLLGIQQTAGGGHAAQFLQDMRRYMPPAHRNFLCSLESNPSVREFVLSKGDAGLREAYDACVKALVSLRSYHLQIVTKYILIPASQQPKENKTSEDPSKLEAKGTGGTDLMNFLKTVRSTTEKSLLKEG
T1 sequence (P14902 whole entry): as above
T3 sequence (P48775 whole entry): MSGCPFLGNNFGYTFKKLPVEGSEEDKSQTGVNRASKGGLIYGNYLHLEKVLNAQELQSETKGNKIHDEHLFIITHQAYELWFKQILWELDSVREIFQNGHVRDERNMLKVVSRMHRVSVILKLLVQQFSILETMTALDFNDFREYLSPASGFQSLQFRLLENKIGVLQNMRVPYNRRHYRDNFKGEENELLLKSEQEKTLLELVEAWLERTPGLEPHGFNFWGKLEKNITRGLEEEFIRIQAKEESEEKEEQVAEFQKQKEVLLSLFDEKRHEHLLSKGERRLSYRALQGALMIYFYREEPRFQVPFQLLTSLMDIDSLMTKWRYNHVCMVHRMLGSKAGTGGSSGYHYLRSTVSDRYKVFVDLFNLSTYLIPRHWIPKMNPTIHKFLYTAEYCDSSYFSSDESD

SMILES	IC50 [1, 4] [nM]	EC50 [2, 5] [µM]	IC50 [3, 6] [nM]	IC50 [1, 7] [nM]	EC50 [2, 8] [µM]	IC50 [3, 9] [nM]	IC50 ([1]; selectivity examples, read-out: enzymatic IC50 value to IDO1) [nM]	IC50 ([3]; selectivity examples, read-out: enzymatic IC50 value to TDO) [nM]
Cc1noc(C)c1-c1ccc2cncn2c1C(O)C1CCCCC1 (stereo not drawn) [Example A140, cyclohexyl(6-(3,5-dimethylisoxazol-4-yl)imidazo[1,5-a]pyridin-5-yl)methanol]	10000	7.81	17000	–	–	–	–	–
OC1CCCCC1C(O)c1c(C2CC2)ccc2cncn12 (stereo not drawn) [Example A141, 2-((6-cyclopropylimidazo[1,5-a]pyridin-5-yl)(hydroxy)methyl)cyclohexan-1-ol]	51	3.15	3900	–	–	–	–	–
OC1CCC(C(O)c2c(C3CC3)ccc3cncn23)CC1 (stereo not drawn) [Example A142, 4-((6-cyclopropylimidazo[1,5-a]pyridin-5-yl)(hydroxy)methyl)cyclohexan-1-ol]	130	0.574	64000	–	–	–	–	–
OC(c1c(Cl)c(Cl)cc2cncn12)C1CCCCC1 (stereo not drawn) [Example A143, cyclohexyl(6,7-dichloroimidazo[1,5-a]pyridin-5-yl)methanol]	15	1.11	270	–	–	–	–	–
OC(CC1CCCCC1)c1c(Cl)c(Cl)cc2cncn12 (stereo not drawn) [Example A144, 2-cyclohexyl-1-(6,7-dichloroimidazo[1,5-a]pyridin-5-yl)ethan-1-ol]	32	1.24	1500	–	–	–	–	–
OC(c1cc(Cl)c(Cl)c2cncn12)C1CCCCC1 (stereo not drawn) [Example A146, cyclohexyl(7,8-dichloroimidazo[1,5-a]pyridin-5-yl)methanol]	28	1.25	210	–	–	–	–	–
OC(c1c(Cl)c(Br)cc2cncn12)C1CCCCC1 (stereo not drawn) [Example A148, (7-bromo-6-chloroimidazo[1,5-a]pyridin-5-yl)(cyclohexyl)methanol]	39	1.49	420	–	–	–	–	–
OC(c1c(Cl)c(Br)cc2cncn12)C1CCCC1 (stereo not drawn) [Example A149, (7-bromo-6-chloroimidazo[1,5-a]pyridin-5-yl)(cyclopentyl)methanol]	35	2.06	160	–	–	–	–	–
OC(c1c(Cl)c(F)cc2cncn12)C1CCCCC1 (stereo not drawn) [Example A151, (6-chloro-7-fluoroimidazo[1,5-a]pyridin-5-yl)(cyclohexyl)methanol]	39	0.415	600	–	–	–	–	–
OC(CC1CCCCC1)c1c(Cl)c(F)cc2cncn12 (stereo not drawn) [Example A152, 1-(6-chloro-7-fluoroimidazo[1,5-a]pyridin-5-yl)-2-cyclohexylethan-1-ol]	33	0.202	7400	–	–	–	–	–
COc1cc(C(O)C2CCCCC2)n2cncc2c1Cl (stereo not drawn) [Example A153, (8-chloro-7-methoxyimidazo[1,5-a]pyridin-5-yl)(cyclohexyl)methanol]	500	6.76	1800	–	–	–	–	–
OC(c1c(Cl)c(Cl)c(Cl)c2cncn12)C1CCCCC1 (stereo not drawn) [Example A154, cyclohexyl(6,7,8-trichloroimidazo[1,5-a]pyridin-5-yl)methanol]	430	0.657	8400	–	–	–	–	–
OC(c1c(F)c(Cl)cc2cncn12)C1CCCCC1 (stereo not drawn) [Example A156, (7-chloro-6-fluoroimidazo[1,5-a]pyridin-5-yl)(cyclohexyl)methanol]	48	1.65	190	–	–	–	–	–

The remaining lines, values ahead:

IC50 [1, 4] [nM]	EC50 [2, 5] [µM]	IC50 [3, 6] [nM]	IC50 [1, 7] [nM]	EC50 [2, 8] [µM]	IC50 [3, 9] [nM]	IC50 ([1]; selectivity examples, read-out: enzymatic IC50 value to IDO1) [nM]	IC50 ([3]; selectivity examples, read-out: enzymatic IC50 value to TDO) [nM]	SMILES
–	–	–	1000	> 10	630	–	–	OC(c1cccn2cncc12)C1CCCCC1 (stereo not drawn) [Example B001, Cyclohexyl(imidazo[1,5-a]pyridin-8-yl)methanol]
–	–	–	330	> 10	3300	–	–	OC(CC1CCCCC1)c1cccn2cncc12 (stereo not drawn) [Example B006, 2-Cyclohexyl-1-(imidazo[1,5-a]pyridin-8-yl)ethan-1-ol]
–	–	–	620	> 10	17000	–	–	OC(CCC1CCCCC1)c1cccn2cncc12 (stereo not drawn) [Example B008, 3-cyclohexyl-1-(imidazo[1,5-a]pyridin-8-yl)propan-1-ol]
–	–	–	170	> 10	190	–	–	Cc1cc(C(O)C2CCCCC2)c2cncn2c1 (stereo not drawn) [Example B011, Cyclohexyl (6-methylimidazo[1,5-a]pyridin-8-yl)methanol]
–	–	–	130	> 10	130	–	–	Cc1cc(C(O)CC2CCCCC2)c2cncn2c1 (stereo not drawn) [Example B012, 2-Cyclohexyl-1-(6-methylimidazo[1,5-a]pyridin-8-yl)ethanol]
–	–	–	240	> 10	190	–	–	OC(CC1CCCCC1)c1cc(Cl)cn2cncc12 (stereo not drawn) [Example B013, 1-(6-Chloroimidazo[1,5-a]pyridin-8-yl)-2-cyclohexylethan-1-ol]
–	–	–	180	> 10	100	–	–	OC(c1cc(Cl)cn2cncc12)C1CCCCC1 (stereo not drawn) [Example B014, (6-Chloroimidazo[1,5-a]pyridin-8-yl)(cyclohexyl)methanol]
–	–	–	14	0.439	1000	–	–	Cc1ccn2cncc2c1C(O)CC1CCCCC1 (stereo not drawn) [Example B101, 2-cyclohexyl-1-(7-methylimidazo[1,5-a]pyridin-8-yl)ethan-1-ol]
–	–	–	23	1.56	360	–	–	Cc1ccn2cncc2c1C(O)C1CCCCC1 (stereo not drawn) [Example B102, cyclohexyl(7-methylimidazo[1,5-a]pyridin-8-yl)methanol]
–	–	–	69	0.575	8000	–	–	OC(c1c(I)ccn2cncc12)C1CCCCC1 (stereo not drawn) [Example B103, cyclohexyl(7-iodoimidazo[1,5-a]pyridin-8-yl)methanol]
–	–	–	38	2.93	940	–	–	OC(c1c(Cl)ccn2cncc12)C1CCCCC1 (stereo not drawn) [Example B104, (7-chloroimidazo[1,5-a]pyridin-8-yl)(cyclohexyl)methanol]
–	–	–	–	0.876	–	33	4900	OC(CC1CCCCC1)c1c(Cl)ccn2cncc12 (stereo not drawn) [Example B105, 1-(7-chloroimidazo[1,5-a]pyridin-8-yl)-2-cyclohexylethan-1-ol]
–	–	–	138	0.457	1200	–	–	CC(C)c1ccn2cncc2c1C(O)C1CCCCC1 (stereo not drawn) [Example B106, Cyclohexyl (7-isopropylimidazo[1,5-a]pyridin-8-yl)methanol]
–	–	–	48	0.256	850	–	–	OC(c1c(C2CC2)ccn2cncc12)C1CCCCC1 (stereo not drawn) [Example B107, Cyclohexyl (7-cyclopropylimidazo[1,5-a]pyridin-8-yl)methanol]
–	–	–	59	0.389	560	–	–	CC(C)c1ccn2cncc2c1C(O)CC1CCCCC1 (stereo not drawn) [Example B108, 2-Cyclohexyl-1-(7-isopropylimidazo[1,5-a]pyridin-8-yl)ethan-1-ol]
–	–	–	35	0.94	4600	–	–	OC(c1c(C2CC2)ccn2cncc12)C1CCCC1 (stereo not drawn) [Example B109]
–	–	–	53	0.259	1000	–	–	OC(CC1CCCCC1)c1c(C2CC2)ccn2cncc12 (stereo not drawn) [Example B110]
